System: patients with MDD and an inadequate response to an SSRI or SNRI
Assay: Massachusetts General Hospital Sexual Functioning Index (MGH-SFI), Study ACP-103-042
Type: in vivo, human
Details: for MGH-SFI 05: Overall Sexual Satisfaction, Effect Size (Cohen's d) / MGH-SFI 06: Overall Improvement Since Last Medication Change, Effect Size (Cohen's d) / MGH-SFI 04: (Men) Ability to Get and Maintain an Erection, Effect Size (Cohen's d) / MGH-SFI 02: Ability to Get Sexually Aroused or Excited, Effect Size (Cohen's d) / MGH-SFI 03: Ability to Achieve Orgasm, Effect Size (Cohen's d) / MGH-SFI 01: Interest in Sex, Effect Size (Cohen's d): PIM 34 mg vs placebo; for MGH-SFI 04: (Men) Ability to Get and Maintain an Erection, Change from Baseline to Week 5 Mean (SE) / MGH-SFI 04: (Men) Ability to Get and Maintain an Erection, Change from Baseline to Week 5 Median / MGH-SFI 04: (Men) Ability to Get and Maintain an Erection, Week 5 Mean (SE) / MGH-SFI 04: (Men) Ability to Get and Maintain an Erection, Week 5 Median / MGH-SFI 05: Overall Sexual Satisfaction, Change from Baseline to Week 5 Mean (SE) / MGH-SFI 05: Overall Sexual Satisfaction, Change from Baseline to Week 5 Median / MGH-SFI 05: Overall Sexual Satisfaction, Week 5 Mean (SE) / MGH-SFI 05: Overall Sexual Satisfaction, Week 5 Median / MGH-SFI 06: Overall Improvement Since Last Medication Change, Week 5 Mean (SE) / MGH-SFI 06: Overall Improvement Since Last Medication Change, Week 5 Median / MGH-SFI 02: Ability to Get Sexually Aroused or Excited, Change from Baseline to Week 5 Mean (SE) / MGH-SFI 02: Ability to Get Sexually Aroused or Excited, Change from Baseline to Week 5 Median / MGH-SFI 02: Ability to Get Sexually Aroused or Excited, Week 5 Mean (SE) / MGH-SFI 02: Ability to Get Sexually Aroused or Excited, Week 5 Median / MGH-SFI 03: Ability to Achieve Orgasm, Change from Baseline to Week 5 Mean (SE) / MGH-SFI 03: Ability to Achieve Orgasm, Change from Baseline to Week 5 Median / MGH-SFI 03: Ability to Achieve Orgasm, Week 5 Mean (SE) / MGH-SFI 03: Ability to Achieve Orgasm, Week 5 Median / MGH-SFI 01: Interest in Sex, Change from Baseline to Week 5 Mean (SE) / MGH-SFI 01: Interest in Sex, Change from Baseline to Week 5 Median / MGH-SFI 01: Interest in Sex, Week 5 Mean (SE) / MGH-SFI 01: Interest in Sex, Week 5 Median: PIM 34 mg; for MGH-SFI 01: Interest in Sex, Change from Baseline to Week 5 Mean (SE) / MGH-SFI 01: Interest in Sex, Change from Baseline to Week 5 Median / MGH-SFI 01: Interest in Sex, Week 5 Mean (SE) / MGH-SFI 01: Interest in Sex, Week 5 Median / MGH-SFI 01: Interest in Sex, Effect Size (Cohen's d): subgroup >50 years
Source text: “Massachusetts General Hospital Sexual Functioning Index (MGH-SFI)” is described, for instance, in Labbate and Lare, 2001, Psychother Psychosom. 70(4):221-225. This is a patient facing questionnaire that quantifies sexual dysfunction into 5 functional domains (“interest in sex,” “sexual arousal,” “ability to achieve orgasm,” “ability to maintain erection” (males only), and “sexual satisfaction”). Patients rate each item using a 6-point scale ranging from 1 (good function) to 6 (poor function). High scores indicate poor sexual functioning. […] The determination of the subject's status and eligibility for randomization in Stage 2 was made in a double-blind manner. […] Sexual functioning was assessed using the Massachusetts General Hospital Sexual Functioning Index or MGH-SFI (Labbate and Lare, 2001, Psychother Psychosom. 70(4):221-225). This is a patient facing questionnaire that quantifies sexual dysfunction into 5 functional domains (“interest in sex,” “sexual arousal,” “ability to achieve orgasm,” “ability to maintain erection” [malesonly], and “sexual satisfaction”). Patients rate each item using a 6-point scale ranging from 1 (good function) to 6 (poor function). The time frame for this scale is the past month. This scale was administered at baseline and Week 5 in both stages of the study. High scores indicate poor sexual functioning. In ACP-103-042 the mean scores for MGH-SFI at Baseline was calculated over all 5 domains for males and the 4 domains for females. For MGH-SFI (follow-up version) at Study Weeks 5 and 10, the mean was calculated in the same way as MGH-SFI at Baseline. […] Tables 10-27 summarize the detailed data of MGH-SFI individual items of the overall study group (Tables 10-15), the subgroup of age of <=50 (Tables 16-21) and the subgroup of age of >50 (Table 21-26). In Tables 9-26, ANCOVA=analysis of covariance; OC=observed cases; LSM=least squares mean; CI=confidence interval; SD=standard deviation; SE=standard error. Stage 1: Baseline=Study Week 0, Week 5=Study Week 5; Stage 2: Baseline=Study Week 5, Week 5=Study Weeks 10. LSM from the stage-specific ANCOVA analysis with the change from baseline as the outcome, treatment group as a factor, and the corresponding Baseline value as a covariate. 2-sided p-value for treatment difference from the stage-specific ANCOVA analysis. An treatment effect size (Cohen's d) is calculated using the formula: Effect Size=Least Square mean difference between PIM and PBO/SD. The corresponding 95% confidence interval for an effect size is calculated based on the theoretical probability distribution of the effect size. […] Tables 10-15 and 28-38 summarize the detailed data of MGH-SFI individual items of the overall study group (Tables 10-15), the female subgroup (Tables 33-37) and the male subgroup (Table 38-43). An treatment effect size (Cohen's d) is calculated using the formula: Effect Size=Least Square mean difference between PIM and PBO/SD. The corresponding 95% confidence interval for an effect size is calculated based on the theoretical probability distribution of the effect size. In Tables 10-15 and 28-38, ANCOVA=analysis of covariance; OC=observed cases; LSM=least squares mean; CI=confidence interval; SD=standard deviation; SE=standard error. Stage 1: Baseline=Study Week 0, Week 5=Study Week 5; Stage 2: Baseline=Study Week 5, Week 5=Study Weeks 10. LSM from the stage-specific ANCOVA analysis with the change from baseline as the outcome, treatment group as a factor, and the corresponding Baseline value as a covariate. 2-sided p-value for treatment difference from the stage-specific ANCOVA analysis. An treatment effect size (Cohen's d) is calculated using the formula: Effect Size=Least Square mean difference between PIM and PBO/SD. The corresponding 95% confidence interval for an effect size is calculated based on the theoretical probability distribution of the effect size.

[1] = subgroup <=50 years old, Stage 1
[2] = subgroup <=50 years old, Stage 2
[3] = subgroup >50 years old, Stage 1
[4] = subgroup >50 years old, Stage 2

## CC(C)COc1ccc(CNC(=O)N(Cc2ccc(F)cc2)C2CCN(C)CC2)cc1 [pimavanserin, N-(4-Fluorophenylmethyl)-N-(1-methylpiperidin-4-yl)-N′-(4-(2-methylpropyloxy)phenylmethyl)carbamide]
[1]
  MGH-SFI 05: Overall Sexual Satisfaction, Effect Size (Cohen's d): 0.304
  MGH-SFI 06: Overall Improvement Since Last Medication Change, Effect Size (Cohen's d): 0.622
[2]
  MGH-SFI 04: (Men) Ability to Get and Maintain an Erection, Change from Baseline to Week 5 Mean (SE): −0.3 (0.48)
  MGH-SFI 04: (Men) Ability to Get and Maintain an Erection, Change from Baseline to Week 5 Median: −0.5
  MGH-SFI 04: (Men) Ability to Get and Maintain an Erection, Week 5 Mean (SE): 3.5 (0.50)
  MGH-SFI 04: (Men) Ability to Get and Maintain an Erection, Week 5 Median: 4.0
  MGH-SFI 05: Overall Sexual Satisfaction, Change from Baseline to Week 5 Mean (SE): −0.6 (0.34)
  MGH-SFI 05: Overall Sexual Satisfaction, Change from Baseline to Week 5 Median: −1.0
  MGH-SFI 05: Overall Sexual Satisfaction, Week 5 Mean (SE): 4.0 (0.39)
  MGH-SFI 05: Overall Sexual Satisfaction, Week 5 Median: 4.0
  MGH-SFI 06: Overall Improvement Since Last Medication Change, Week 5 Mean (SE): 3.8 (0.33)
  MGH-SFI 06: Overall Improvement Since Last Medication Change, Week 5 Median: 4.0
  MGH-SFI 04: (Men) Ability to Get and Maintain an Erection, Effect Size (Cohen's d): −0.526
  MGH-SFI 05: Overall Sexual Satisfaction, Effect Size (Cohen's d): 0.405
  MGH-SFI 06: Overall Improvement Since Last Medication Change, Effect Size (Cohen's d): 0.043
[3]
  MGH-SFI 02: Ability to Get Sexually Aroused or Excited, Change from Baseline to Week 5 Mean (SE): −0.9 (0.21)
  MGH-SFI 02: Ability to Get Sexually Aroused or Excited, Change from Baseline to Week 5 Median: −1.0
  MGH-SFI 02: Ability to Get Sexually Aroused or Excited, Week 5 Mean (SE): 3.9 (0.32)
  MGH-SFI 02: Ability to Get Sexually Aroused or Excited, Week 5 Median: 4.0
  MGH-SFI 03: Ability to Achieve Orgasm, Change from Baseline to Week 5 Mean (SE): −1.2 (0.33)
  MGH-SFI 03: Ability to Achieve Orgasm, Change from Baseline to Week 5 Median: 0.0
  MGH-SFI 03: Ability to Achieve Orgasm, Week 5 Mean (SE): 3.8 (0.33)
  MGH-SFI 03: Ability to Achieve Orgasm, Week 5 Median: 4.0
  MGH-SFI 04: (Men) Ability to Get and Maintain an Erection, Change from Baseline to Week 5 Mean (SE): 0.8 (0.48)
  MGH-SFI 04: (Men) Ability to Get and Maintain an Erection, Change from Baseline to Week 5 Median: 0.5
  MGH-SFI 04: (Men) Ability to Get and Maintain an Erection, Week 5 Mean (SE): 5.0 (0.71)
  MGH-SFI 04: (Men) Ability to Get and Maintain an Erection, Week 5 Median: 5.5
  MGH-SFI 05: Overall Sexual Satisfaction, Change from Baseline to Week 5 Mean (SE): −1.1 (0.34)
  MGH-SFI 05: Overall Sexual Satisfaction, Change from Baseline to Week 5 Median: 0.0
  MGH-SFI 05: Overall Sexual Satisfaction, Week 5 Mean (SE): 4.1 (0.34)
  MGH-SFI 05: Overall Sexual Satisfaction, Week 5 Median: 4.0
  MGH-SFI 06: Overall Improvement Since Last Medication Change, Week 5 Mean (SE): 3.3 (0.24)
  MGH-SFI 06: Overall Improvement Since Last Medication Change, Week 5 Median: 4.0
  MGH-SFI 02: Ability to Get Sexually Aroused or Excited, Effect Size (Cohen's d): 0.660
  MGH-SFI 03: Ability to Achieve Orgasm, Effect Size (Cohen's d): 0.869
  MGH-SFI 04: (Men) Ability to Get and Maintain an Erection, Effect Size (Cohen's d): −0.568
  MGH-SFI 05: Overall Sexual Satisfaction, Effect Size (Cohen's d): 0.757
  MGH-SFI 06: Overall Improvement Since Last Medication Change, Effect Size (Cohen's d): 0.531
[4]
  MGH-SFI 02: Ability to Get Sexually Aroused or Excited, Change from Baseline to Week 5 Mean (SE): −0.4 (0.21)
  MGH-SFI 02: Ability to Get Sexually Aroused or Excited, Change from Baseline to Week 5 Median: 0.0
  MGH-SFI 02: Ability to Get Sexually Aroused or Excited, Week 5 Mean (SE): 4.4 (0.46)
  MGH-SFI 02: Ability to Get Sexually Aroused or Excited, Week 5 Median: 5.0
  MGH-SFI 03: Ability to Achieve Orgasm, Change from Baseline to Week 5 Mean (SE): −0.5 (0.27)
  MGH-SFI 03: Ability to Achieve Orgasm, Change from Baseline to Week 5 Median: 0.0
  MGH-SFI 03: Ability to Achieve Orgasm, Week 5 Mean (SE): 4.5 (0.54)
  MGH-SFI 03: Ability to Achieve Orgasm, Week 5 Median: 5.0
  MGH-SFI 04: (Men) Ability to Get and Maintain an Erection, Change from Baseline to Week 5 Mean (SE): −1.6 (0.51)
  MGH-SFI 04: (Men) Ability to Get and Maintain an Erection, Change from Baseline to Week 5 Median: −2.0
  MGH-SFI 04: (Men) Ability to Get and Maintain an Erection, Week 5 Mean (SE): 2.8 (0.92)
  MGH-SFI 04: (Men) Ability to Get and Maintain an Erection, Week 5 Median: 2.0
  MGH-SFI 05: Overall Sexual Satisfaction, Change from Baseline to Week 5 Mean (SE): −0.8 (0.39)
  MGH-SFI 05: Overall Sexual Satisfaction, Change from Baseline to Week 5 Median: 0.0
  MGH-SFI 05: Overall Sexual Satisfaction, Week 5 Mean (SE): 4.2 (0.58)
  MGH-SFI 05: Overall Sexual Satisfaction, Week 5 Median: 5.0
  MGH-SFI 06: Overall Improvement Since Last Medication Change, Week 5 Mean (SE): 3.5 (0.40)
  MGH-SFI 06: Overall Improvement Since Last Medication Change, Week 5 Median: 4.0
  MGH-SFI 02: Ability to Get Sexually Aroused or Excited, Effect Size (Cohen's d): −0.075
  MGH-SFI 03: Ability to Achieve Orgasm, Effect Size (Cohen's d): 0.169
  MGH-SFI 04: (Men) Ability to Get and Maintain an Erection, Effect Size (Cohen's d): 1.174
  MGH-SFI 05: Overall Sexual Satisfaction, Effect Size (Cohen's d): 0.555
  MGH-SFI 06: Overall Improvement Since Last Medication Change, Effect Size (Cohen's d): 0.406
Stage 1
  MGH-SFI 01: Interest in Sex, Change from Baseline to Week 5 Mean (SE): −1.0 (0.24)
  MGH-SFI 01: Interest in Sex, Change from Baseline to Week 5 Median: −1.0
  MGH-SFI 01: Interest in Sex, Week 5 Mean (SE): 3.9 (0.32)
  MGH-SFI 01: Interest in Sex, Week 5 Median: 4.0
  MGH-SFI 01: Interest in Sex, Effect Size (Cohen's d): 0.649
Stage 2
  MGH-SFI 01: Interest in Sex, Change from Baseline to Week 5 Mean (SE): −0.6 (0.24)
  MGH-SFI 01: Interest in Sex, Change from Baseline to Week 5 Median: 0.0
  MGH-SFI 01: Interest in Sex, Week 5 Mean (SE): 4.4 (0.45)
  MGH-SFI 01: Interest in Sex, Week 5 Median: 5.0
  MGH-SFI 01: Interest in Sex, Effect Size (Cohen's d): 0.468

— US20220016101A1 (ACADIA Pharmaceuticals Inc., priority 2018, published 2022)
